According to US12162881B2, “Forms and compositions of inhibitors of JAK2” (Ajax Therapeutics, Inc., priority 2021, dated 2024):
Each block holds one compound with its values, some of them ahead of it.

Key:
[1] = Disproportionation of Compound 2 (HCl salt) stirred in water; assay type: physicochemical; conditions: Form A obtained by disproportionation of Compound 2 in water (Example 11)
Protocol: An exemplary procedure for preparing Compound 1 Form A is as follows: Compound 1 Lot II (459.1 mg) was slurried in THF (4 mL). Concentrated HCl (154 μL, 2 equiv.) was added to the slurry. The off-white slurry rapidly changed to a yellow slurry. The slurry was stirred at ambient temperature for 1 day. Solids were collected by vacuum filtration and briefly dried under vacuum. The yellow material, assumed to be an HCl salt, was collected by vacuum filtration. The material (543.2 mg) was then suspended in H2O (5 mL) and stirred at ambient temperature for 2 days. Pale yellow solids were collected by vacuum filtration but appeared to still contain some HCl salt by XRPD. Solids were re-slurried in H2O (1 mL) at ambient temperature for additional 3 days. The off-white solids were collected by vacuum filtration and dried on filter until solids were no longer visibly damp.

[2] = Variable relative humidity XRPD (VRH-XRPD); assay type: physicochemical
Protocol: XRPD patterns were collected with a PANalytical X'Pert PRO MPD diffractometer using an incident beam of Cu Kα radiation produced using a long, fine-focus source and a nickel filter. The diffractometer was configured using the symmetric Bragg-Brentano geometry. Data were collected and analyzed using Data Collector software v. 5.5. Prior to the analysis, a silicon specimen (NIST SRM 640f) was analyzed to verify the observed position of the Si 111 peak is consistent with the NIST-certified position. A specimen of the sample was packed in a nickel-coated copper well. Antiscatter slits (SS) were used to minimize the background generated by air. Soller slits for the incident and diffracted beams were used to minimize broadening from axial divergence. Diffraction patterns were collected using a scanning position-sensitive detector (X'Celerator) located 240 mm from the sample and Data Collector software v. 5.5.
An Anton Paar temperature-humidity chamber (THC) was used while collecting in-situ XRPD patterns as a function of humidity. The temperature of the specimen was changed with a Peltier thermoelectric device located directly under the specimen holder and monitored with a platinum-100 resistance sensor located in the specimen holder. The thermoelectric device was powered and controlled by an Anton Paar TCU 50 interfaced with Data Collector. The humidity was generated with an RH-200 manufactured by VTI Inc. and carried by a flow of nitrogen gas. The humidity was monitored by a HygroClip sensor manufactured by Rotronic located next to the specimen inside the THC.
VRH-XRPD analysis was conducted to help determine water activity boundary for the solid-state conversion between hydrated Form A and anhydrous Form B. This method was utilized due the observed high tendency of Compound 1 to form solvates, which precluded the use of solvent-mediated approach.
Overall, two VRH-XRPD experiments were conducted to qualitatively evaluate RH conditions leading to predominance of Form A over Form B and vice versa. The kinetic component was not assessed.
The first VRH-XRPD experiment was conducted with a goal of observing dehydration of hydrated Form A. An initial XRPD scan was, therefore, acquired on Form A equilibrated in-situ at ambient RH for 45 minutes, which at the time of the analysis was ˜30%. The XRPD pattern from this scan was consistent with Form A (FIG. 39, top).
XRPD patterns were collected throughout the course of the experiment, each with a 10 minute scan.
XRPD patterns were collected throughout the course of the experiment, each with a 10 minute scan. The XRPD patterns remained Form B until the RH reached approximately 60% RH, where Form A became the primary phase with some Form B remaining (FIG. 41, top two spectra). Further decrease of Form B was observed through the remainder of the 60% RH hold at which point the experiment ended (FIG. 41, bottom two spectra). Complete conversion to Form A from Form B was not observed under these conditions.

[3] = Drying experiments of solvated Compound 1 materials (vacuum oven, XRPD); assay type: physicochemical; conditions: vac., 1 d
Protocol: Drying experiments: Damp and solvated Compound 1 materials were placed in vacuum ovens set to ambient temperature or 80° C. for 1 day. Dried solids were analyzed by XRPD.

[4] = Physical Stability of Selected Solid Forms (vacuum oven, XRPD); assay type: physicochemical; conditions: vac. oven, RT, 5 d
[5] = Approximate Aqueous Solubility of Selected Solid Forms; assay type: physicochemical; conditions: ambient temperature, visual observation; for solubility: water, thermodynamic from solid, read-out: Estimated Aqueous Solubility
Protocol: Aliquots of various solvents were added to measured amounts of provided compounds with agitation at ambient temperature until complete dissolution was achieved, as judged by visual observation. If dissolution occurred after the addition of the first aliquot, values were reported as “>”. Results are shown in Table 18, where A is <2 mg/mL; B is <1 mg/mL.

[6] = Relative humidity jar experiments (XRPD); assay type: physicochemical
Protocol: Relative humidify jar experiments: Solid Compound 1 was placed in relative humidity jars containing saturated solutions of various salts to maintain a desired relative humidity level at 25° C. One sample of Compound 1 was placed in a jar containing P205 in an effort to maintain 0% RH.

[7] = target: T1, JAK2 (JH1domain-catalytic, Y1007F,Y1008F) kinase (Homo sapiens, UniProt O60674, Y1007F/Y1008F); assay: JAK2 Binding Assay; conditions: Compound 1 as prepared by Example 1
T1 construct: JAK2 (JH1domain-catalytic, Y1007F,Y1008F) kinase was expressed as N-terminal fusion; made in house; host or cells: transiently transfected HEK293 cells
T1 sequence (O60674 849-1124 Y1007F/Y1008F limits assumed): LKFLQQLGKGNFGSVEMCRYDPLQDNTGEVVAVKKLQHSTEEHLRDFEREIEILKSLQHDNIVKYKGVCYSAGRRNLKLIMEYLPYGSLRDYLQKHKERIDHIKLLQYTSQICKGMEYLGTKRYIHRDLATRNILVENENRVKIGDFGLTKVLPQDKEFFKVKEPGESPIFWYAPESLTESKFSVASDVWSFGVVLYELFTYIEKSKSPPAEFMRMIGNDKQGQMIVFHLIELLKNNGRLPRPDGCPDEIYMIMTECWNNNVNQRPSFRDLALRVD
Protocol: JAK2 (JH1domain-catalytic, Y1007F,Y1008F) kinase was expressed as N-terminal fusion to the DNA binding domain of NFkB in transiently transfected HEK293 cells and subsequently tagged with DNA for qPCR detection. Streptavidin-coated magnetic beads were treated with biotinylated small molecule ligands for 30 minutes at room temperature to generate affinity resins for kinase assays. The liganded beads were blocked with excess biotin and washed with blocking buffer (SeaBlock (Pierce), 1% BSA, 0.05% Tween 20, 1 mmol/L DTT) to remove unbound ligand and to reduce nonspecific phage binding. Binding reactions were assembled by combining kinases, liganded affinity beads, and test compounds in 1× binding buffer (1×PBS, 0.05% Tween 20, 0.1% BSA, 1 mmol/L DTT). Test compound was prepared as 111× stocks in 100% DMSO and directly diluted into the assay wells. All reactions were performed in polypropylene 384-well plates in a final volume of 0.02 mL. The assay plates were incubated at room temperature with shaking for 1 hour and the affinity beads were washed with wash buffer (1×PBS, 0.05% Tween 20). The beads were then re-suspended in elution buffer (1×PBS, 0.05% Tween 20, 0.5 μmol/L non-biotinylated affinity ligand) and incubated at room temperature with shaking for 30 minutes. The kinase concentration in the eluate was measured by qPCR.

XRPD Result after drying ([3]; RT, listed as Form F): Form F
Compound: CC(=O)Nc1cc(Oc2cnc3nc(Nc4cc(C(F)(F)F)cn(C)c4=O)n(C)c3c2C#N)ccn1 [Compound 1 Form F, N-(4-((7-cyano-1-methyl-2-((1-methyl-2-oxo-5-(trifluoromethyl)-1,2-dihydropyridin-3-yl)amino)-1H-imidazo[4,5-b]pyridin-6-yl)oxy)pyridin-2-yl)acetamide]

XRPD Results after RH stress ([6]; 23% RH, RT, 6 d): B + minor A
XRPD Results after RH stress ([6]; 43% RH, RT, 6 d): A + B
XRPD Results after RH stress ([6]; 54% RH, RT, 6 d): A + B
XRPD Results after RH stress ([6]; P2O5 jar, 0% RH RT, 12 d): B + peaks
Kd [7]: < 0.01 µM
Compound: CC(=O)Nc1cc(Oc2cnc3nc(Nc4cc(C(F)(F)F)cn(C)c4=O)n(C)c3c2C#N)ccn1 [Compound 1, N-(4-((7-cyano-1-methyl-2-((1-methyl-2-oxo-5-(trifluoromethyl)-1,2-dihydropyridin-3-yl)amino)-1H-imidazo[4,5-b]pyridin-6-yl)oxy)pyridin-2-yl)acetamide]

XRPD Result (physical stability) [4]: Phosphate Form A
solubility [5]: < 1000 µg/mL
Compound: CC(=O)Nc1cc(Oc2cnc3nc(Nc4cc(C(F)(F)F)cn(C)c4=O)n(C)c3c2C#N)ccn1.O=P(O)(O)O [Phosphate Form A, N-(4-((7-cyano-1-methyl-2-((1-methyl-2-oxo-5-(trifluoromethyl)-1,2-dihydropyridin-3-yl)amino)-1H-imidazo[4,5-b]pyridin-6-yl)oxy)pyridin-2-yl)acetamide phosphate]

XRPD Result after drying ([3]; RT, listed as Form G): Form B + peaks (some disorder)
Compound: CC(=O)Nc1cc(Oc2cnc3nc(Nc4cc(C(F)(F)F)cn(C)c4=O)n(C)c3c2C#N)ccn1 [Compound 1 Form G, N-(4-((7-cyano-1-methyl-2-((1-methyl-2-oxo-5-(trifluoromethyl)-1,2-dihydropyridin-3-yl)amino)-1H-imidazo[4,5-b]pyridin-6-yl)oxy)pyridin-2-yl)acetamide]

More lines, now with the values behind:

Compound: CC(=O)Nc1cc(Oc2cnc3nc(Nc4cc(C(F)(F)F)cn(C)c4=O)n(C)c3c2C#N)ccn1 [Compound 1 Form A, N-(4-((7-cyano-1-methyl-2-((1-methyl-2-oxo-5-(trifluoromethyl)-1,2-dihydropyridin-3-yl)amino)-1H-imidazo[4,5-b]pyridin-6-yl)oxy)pyridin-2-yl)acetamide]
Stability relative to Compound 2 [1]: superior stability
RH at which a small amount of Form B became visible ([2]; Experiment 1, RH incrementally decreased from ~85%): approximately 21 % RH
RH at which Form A was no longer visible ([2]; Experiment 1, decreasing RH): ~5 % RH
RH at which Form B became the predominant phase ([2]; Experiment 1, decreasing RH): 11 % RH
RH at which dehydration is expected to begin ([2]; VRH-XRPD and DVS data combined): 20 % RH
Form change on hold under nitrogen stream ([2]; overnight (17 h) hold under nitrogen stream (~0% RH)): converted to Form B

Compound: CC(=O)Nc1cc(Oc2cnc3nc(Nc4cc(C(F)(F)F)cn(C)c4=O)n(C)c3c2C#N)ccn1 [Compound 1 Form E, N-(4-((7-cyano-1-methyl-2-((1-methyl-2-oxo-5-(trifluoromethyl)-1,2-dihydropyridin-3-yl)amino)-1H-imidazo[4,5-b]pyridin-6-yl)oxy)pyridin-2-yl)acetamide]
XRPD Result after drying ([3]; RT, listed as Form E): Form H (some disorder)

Compound: CC(=O)Nc1cc(Oc2cnc3nc(Nc4cc(C(F)(F)F)cn(C)c4=O)n(C)c3c2C#N)ccn1.O=S(=O)(O)c1ccccc1 [Besylate Form A, N-(4-((7-cyano-1-methyl-2-((1-methyl-2-oxo-5-(trifluoromethyl)-1,2-dihydropyridin-3-yl)amino)-1H-imidazo[4,5-b]pyridin-6-yl)oxy)pyridin-2-yl)acetamide besylate]
XRPD Result (physical stability) [4]: Besylate Form C
solubility [5]: < 1000 µg/mL

Compound: CC(=O)Nc1cc(Oc2cnc3nc(Nc4cc(C(F)(F)F)cn(C)c4=O)n(C)c3c2C#N)ccn1 [Compound 1 Form D, N-(4-((7-cyano-1-methyl-2-((1-methyl-2-oxo-5-(trifluoromethyl)-1,2-dihydropyridin-3-yl)amino)-1H-imidazo[4,5-b]pyridin-6-yl)oxy)pyridin-2-yl)acetamide]
XRPD Result after drying ([3]; 80° C.): Form D + peaks (some disorder)
XRPD Result after drying ([3]; RT, listed as Form D): Form D^a

Compound: N-(4-((7-cyano-1-methyl-2-((1-methyl-2-oxo-5-(trifluoromethyl)-1,2-dihydropyridin-3-yl)amino)-1H-imidazo[4,5-b]pyridin-6-yl)oxy)pyridin-2-yl)acetamide edisylate [Edisylate Form A]
XRPD Result (physical stability) [4]: Edisylate Form C
Estimated Aqueous Solubility (mg/mL) [5]: B (B is <1 mg/mL)
